{"source": "ChEMBL document CHEMBL1131993", "about": "“Binding affinities of 3-(3-phenylisoxazol-5-yl)methylidene-1-azabicycles to acetylcholine receptors” (Bioorg Med Chem Lett, 1999)", "key": {"[1]": {"biological_target": "Muscarinic acetylcholine receptor M3 (Homo sapiens) (UniProt P20309)", "sequence (P20309 whole entry, looked up)": "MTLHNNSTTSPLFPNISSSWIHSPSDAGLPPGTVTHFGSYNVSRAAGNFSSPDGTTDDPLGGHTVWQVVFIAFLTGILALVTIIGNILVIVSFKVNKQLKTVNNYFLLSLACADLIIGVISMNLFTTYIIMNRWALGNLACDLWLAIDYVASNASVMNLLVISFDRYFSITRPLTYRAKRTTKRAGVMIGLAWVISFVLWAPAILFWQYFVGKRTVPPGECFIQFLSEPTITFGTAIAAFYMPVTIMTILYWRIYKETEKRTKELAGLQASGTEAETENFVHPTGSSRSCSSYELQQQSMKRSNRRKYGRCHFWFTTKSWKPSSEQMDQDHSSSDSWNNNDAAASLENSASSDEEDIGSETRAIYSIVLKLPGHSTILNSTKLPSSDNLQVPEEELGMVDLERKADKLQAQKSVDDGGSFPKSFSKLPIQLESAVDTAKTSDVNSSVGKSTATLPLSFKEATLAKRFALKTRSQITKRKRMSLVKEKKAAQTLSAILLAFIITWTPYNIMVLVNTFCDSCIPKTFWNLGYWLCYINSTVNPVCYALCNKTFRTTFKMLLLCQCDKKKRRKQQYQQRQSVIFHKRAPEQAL", "test": "Ability to displace [3H]N-methylscopolamine binding to M3 human recombinant muscarinic receptor in CHO cells at concentration 1 uM", "type": "cell-based"}, "[2]": {"biological_target": "Neuronal acetylcholine receptor", "test": "The compound was tested for its binding affinity against Nicotinic acetylcholine receptor in synaptic membrane fractions from rat cerebral cortices.", "type": "cell membranes"}, "[3]": {"biological_target": "T1, Muscarinic acetylcholine receptor M1 (Homo sapiens) (UniProt P11229)", "T1 sequence (whole entry)": "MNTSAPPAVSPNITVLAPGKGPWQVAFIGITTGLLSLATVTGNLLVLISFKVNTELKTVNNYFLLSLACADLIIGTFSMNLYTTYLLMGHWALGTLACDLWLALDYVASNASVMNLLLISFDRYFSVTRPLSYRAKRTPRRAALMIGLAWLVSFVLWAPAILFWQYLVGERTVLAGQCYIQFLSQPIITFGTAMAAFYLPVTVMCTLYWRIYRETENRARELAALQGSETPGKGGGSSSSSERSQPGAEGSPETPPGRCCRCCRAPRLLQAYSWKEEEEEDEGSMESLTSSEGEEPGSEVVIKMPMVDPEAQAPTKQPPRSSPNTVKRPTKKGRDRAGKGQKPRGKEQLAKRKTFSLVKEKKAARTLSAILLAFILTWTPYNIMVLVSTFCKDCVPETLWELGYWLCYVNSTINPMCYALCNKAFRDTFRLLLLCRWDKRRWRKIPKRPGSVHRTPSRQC", "test": "Ability to displace [3H]N-methylscopolamine binding to M1 human recombinant muscarinic receptor in CHO cells at concentration 10 uM", "type": "cell-based"}, "[4]": {"biological_target": "Muscarinic acetylcholine receptor M3 (Homo sapiens) (UniProt P20309)", "test": "Ability to displace [3H]N-methylscopolamine binding to M3 human recombinant muscarinic receptor in CHO cells at concentration 10 uM", "type": "cell-based"}, "[5]": {"biological_target": "T1, Muscarinic acetylcholine receptor M1 (Homo sapiens)", "test": "Ability to displace [3H]N-methylscopolamine binding to M1 human recombinant muscarinic receptor in CHO cells at concentration 1 uM", "type": "cell-based"}, "[6]": {"biological_target": "T2, Acetylcholine receptor subunit delta (Torpedo californica) (UniProt P02718)", "T2 sequence (whole entry)": "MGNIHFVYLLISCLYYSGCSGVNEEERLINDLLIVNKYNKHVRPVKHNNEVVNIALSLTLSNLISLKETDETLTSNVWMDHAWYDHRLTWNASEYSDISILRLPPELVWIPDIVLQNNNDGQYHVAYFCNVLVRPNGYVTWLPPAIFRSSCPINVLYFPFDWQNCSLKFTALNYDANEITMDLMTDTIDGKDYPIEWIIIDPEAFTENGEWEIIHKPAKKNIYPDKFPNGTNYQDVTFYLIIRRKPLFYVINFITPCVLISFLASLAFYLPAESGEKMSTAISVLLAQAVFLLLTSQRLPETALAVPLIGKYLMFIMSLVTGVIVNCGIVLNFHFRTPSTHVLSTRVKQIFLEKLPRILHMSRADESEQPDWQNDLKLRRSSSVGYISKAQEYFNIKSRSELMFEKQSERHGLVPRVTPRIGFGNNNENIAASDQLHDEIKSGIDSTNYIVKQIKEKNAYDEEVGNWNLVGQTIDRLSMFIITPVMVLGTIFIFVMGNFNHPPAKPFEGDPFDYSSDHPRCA", "test": "Ability to displace [3H]cytisine binding to Nicotinic acetylcholine receptor in synaptic membrane fractions from rat cerebral cortices at a concentration of 10 uM.", "type": "cell membranes", "conditions": "target entry is the homologue from another species"}, "[7]": {"biological_target": "T3, Muscarinic acetylcholine receptor M2 (Homo sapiens) (UniProt P08172)", "T3 sequence (whole entry)": "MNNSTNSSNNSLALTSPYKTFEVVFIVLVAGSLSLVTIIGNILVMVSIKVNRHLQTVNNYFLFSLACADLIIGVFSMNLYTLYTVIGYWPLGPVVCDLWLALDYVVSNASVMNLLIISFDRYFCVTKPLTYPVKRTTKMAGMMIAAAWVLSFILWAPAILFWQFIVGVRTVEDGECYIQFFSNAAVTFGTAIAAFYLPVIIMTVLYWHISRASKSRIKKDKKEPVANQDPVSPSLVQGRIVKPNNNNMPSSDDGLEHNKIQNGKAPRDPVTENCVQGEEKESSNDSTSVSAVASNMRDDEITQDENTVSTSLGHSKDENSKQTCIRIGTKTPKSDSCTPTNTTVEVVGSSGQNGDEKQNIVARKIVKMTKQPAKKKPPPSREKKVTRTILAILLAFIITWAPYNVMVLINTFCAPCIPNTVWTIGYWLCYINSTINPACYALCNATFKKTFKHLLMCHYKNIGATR", "test": "Ability to displace [3H]N-methylscopolamine binding to M2 human recombinant muscarinic receptor in CHO cells at concentration 10 uM", "type": "cell-based"}, "[8]": {"biological_target": "T3, Muscarinic acetylcholine receptor M2 (Homo sapiens)", "test": "Ability to displace [3H]N-methylscopolamine binding to M2 human recombinant muscarinic receptor in CHO cells at concentration 1 uM", "type": "cell-based"}, "[9]": {"biological_target": "Neuronal acetylcholine receptor (Rattus norvegicus) (UniProt P04757+P09483+P12389+P12390+P12392+P43144+Q9JLB5+P12391+P43143+P20420+Q05941)", "test": "Ability to displace [3H]cytisine binding to nicotinic receptor in synaptic membrane fractions from rat cerebral cortices at a concentration of 10 uM.", "type": "cell membranes"}, "[10]": {"biological_target": "T4, Neuronal acetylcholine receptor subunit alpha-7 (Rattus norvegicus, UniProt Q05941)", "T4 sequence (Q05941 whole entry)": "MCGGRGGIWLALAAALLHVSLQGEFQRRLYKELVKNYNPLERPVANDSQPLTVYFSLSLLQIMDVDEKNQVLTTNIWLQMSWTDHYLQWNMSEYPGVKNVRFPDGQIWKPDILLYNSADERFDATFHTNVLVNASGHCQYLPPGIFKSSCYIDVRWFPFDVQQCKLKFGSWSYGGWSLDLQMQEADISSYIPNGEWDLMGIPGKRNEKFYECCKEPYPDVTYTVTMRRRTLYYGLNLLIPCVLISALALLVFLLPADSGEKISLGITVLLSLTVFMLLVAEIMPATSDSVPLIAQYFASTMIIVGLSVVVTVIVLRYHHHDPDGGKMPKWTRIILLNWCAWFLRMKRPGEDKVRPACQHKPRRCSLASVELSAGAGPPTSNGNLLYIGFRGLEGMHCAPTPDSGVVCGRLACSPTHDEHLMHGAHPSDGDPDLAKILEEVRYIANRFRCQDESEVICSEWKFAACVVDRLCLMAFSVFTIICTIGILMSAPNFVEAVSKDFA", "test": "The compound was tested for its binding affinity against nicotinic receptor in synaptic membrane fractions from rat cerebral cortices.", "type": "cell membranes"}, "[11]": {"biological_target": "T4, Neuronal acetylcholine receptor subunit alpha-7", "test": "Compound was tested for its binding affinity against nicotinic receptor in synaptic membrane fractions from rat cerebral cortices.", "type": "cell membranes"}, "[12]": {"biological_target": "T5, Muscarinic acetylcholine receptor M1 (Homo sapiens, UniProt P11229)", "T5 sequence (P11229 whole entry)": "T1 sequence (whole entry)", "test": "Compound was tested for its binding affinity against M1 human recombinant muscarinic receptor in CHO cells.", "type": "cell-based"}}}
{"smiles": "Nc1ccc(-c2cc(/C=C3/CN4CCC3CC4)on2)cc1", "values": [{"measurement": "inhibition", "setting": "[1]", "result": 1, "unit": "%"}, {"measurement": "IC50", "setting": "[2]", "result": 709, "unit": "nM"}, {"measurement": "inhibition", "setting": "[3]", "result": 86, "unit": "%"}, {"measurement": "inhibition", "setting": "[4]", "result": 19, "unit": "%"}, {"measurement": "inhibition", "setting": "[5]", "result": 33, "unit": "%"}, {"measurement": "inhibition", "setting": "[6]", "result": 94, "unit": "%"}, {"measurement": "inhibition", "setting": "[7]", "result": 30, "unit": "%"}, {"measurement": "inhibition", "setting": "[8]", "result": 5, "unit": "%"}]}
{"smiles": "N#Cc1ccc(-c2cc(/C=C3\\CN4CCC3CC4)on2)cc1", "values": [{"measurement": "inhibition", "setting": "[1]", "result": 9, "unit": "%"}, {"measurement": "inhibition", "setting": "[9]", "result": 83, "unit": "%"}, {"measurement": "inhibition", "setting": "[3]", "result": 22, "unit": "%"}, {"measurement": "inhibition", "setting": "[4]", "result": 31, "unit": "%"}, {"measurement": "IC50", "setting": "[10]", "result": "> 10", "unit": "nM"}, {"measurement": "inhibition", "setting": "[5]", "result": 2, "unit": "%"}, {"measurement": "inhibition", "setting": "[7]", "result": 32, "unit": "%"}, {"measurement": "inhibition", "setting": "[8]", "result": 6, "unit": "%"}]}
{"smiles": "Oc1ccc(-c2cc(/C=C3/CN4CCC3CC4)on2)cc1O", "values": [{"measurement": "inhibition", "setting": "[1]", "result": 5, "unit": "%"}, {"measurement": "IC50", "setting": "[2]", "result": 486, "unit": "nM"}, {"measurement": "inhibition", "setting": "[3]", "result": 59, "unit": "%"}, {"measurement": "inhibition", "setting": "[4]", "result": 39, "unit": "%"}, {"measurement": "inhibition", "setting": "[5]", "result": 13, "unit": "%"}, {"measurement": "inhibition", "setting": "[6]", "result": 95, "unit": "%"}, {"measurement": "inhibition", "setting": "[7]", "result": 43, "unit": "%"}, {"measurement": "inhibition", "setting": "[8]", "result": 12, "unit": "%"}]}
{"smiles": "Cc1cc(/C=C2\\CN3CCC2CC3)on1", "values": [{"measurement": "IC50", "setting": "[11]", "result": 12, "unit": "nM"}, {"measurement": "IC50", "setting": "[12]", "result": "~10000", "unit": "nM"}]}
{"smiles": "N#Cc1ccc(-c2cc(/C=C3/CN4CCC3CC4)on2)cc1", "values": [{"measurement": "inhibition", "setting": "[1]", "result": 1, "unit": "%"}, {"measurement": "inhibition", "setting": "[9]", "result": 92, "unit": "%"}, {"measurement": "inhibition", "setting": "[3]", "result": 61, "unit": "%"}, {"measurement": "inhibition", "setting": "[4]", "result": 26, "unit": "%"}, {"measurement": "IC50", "setting": "[10]", "result": 803, "unit": "nM"}, {"measurement": "inhibition", "setting": "[5]", "result": 11, "unit": "%"}, {"measurement": "inhibition", "setting": "[7]", "result": 23, "unit": "%"}, {"measurement": "inhibition", "setting": "[8]", "result": 0, "unit": "%"}]}
{"smiles": "Oc1ccc(-c2cc(/C=C3\\CN4CCC3CC4)on2)cc1O", "values": [{"measurement": "inhibition", "setting": "[1]", "result": 0, "unit": "%"}, {"measurement": "inhibition", "setting": "[3]", "result": 8, "unit": "%"}, {"measurement": "inhibition", "setting": "[4]", "result": 0, "unit": "%"}, {"measurement": "inhibition", "setting": "[5]", "result": 0, "unit": "%"}, {"measurement": "inhibition", "setting": "[6]", "result": 88, "unit": "%"}, {"measurement": "inhibition", "setting": "[7]", "result": 7, "unit": "%"}, {"measurement": "inhibition", "setting": "[8]", "result": 0, "unit": "%"}]}
{"smiles": "Oc1ccc(-c2cc(/C=C3/CN4CCC3CC4)on2)cc1", "values": [{"measurement": "inhibition", "setting": "[1]", "result": 3, "unit": "%"}, {"measurement": "inhibition", "setting": "[9]", "result": 93, "unit": "%"}, {"measurement": "inhibition", "setting": "[3]", "result": 65, "unit": "%"}, {"measurement": "inhibition", "setting": "[4]", "result": 14, "unit": "%"}, {"measurement": "IC50", "setting": "[10]", "result": 695, "unit": "nM"}, {"measurement": "inhibition", "setting": "[5]", "result": 6, "unit": "%"}, {"measurement": "inhibition", "setting": "[7]", "result": 17, "unit": "%"}, {"measurement": "inhibition", "setting": "[8]", "result": 3, "unit": "%"}]}
